Measured values as given in patent US8377435B2, “Antibody induced cell membrane wounding” (The Board of Trustees of the Leland Stanford Junior …, priority 2004, dated 2013).
Values joined by “and” are separate entries in the source; they are usually repeats but may differ in a detail not shown here. Equal entries are not always repeated.

Tests used:
Format in all cases: cell-based, human
Nalm-6 cells = assay: Cell viability assay using PI staining and forward scatter, Nalm-6; settings: for viability (percent viable cells): jasplakinolide 3 μgs/ml or cytochalasin 5 μgs/ml 2 hr at 37° C; for cell viability: caspase inhibitors 10 μM 2 hr at 37° C before treatment with mAb 216
Procedure: The integrity of the plasma membrane was assessed by the ability of cells to exclude propidium iodide (PI, Sigma, St. Louis, Mo.). The level of PI incorporation was quantitated by flow cytometry on FACScan (Becton-Dickinson, San Jose Calif.) interfaced with VersatermPro and FlowJo software at Stanford's FACS facility. PI-negative cells with normal size as measured by forward scatter signals were considered live cells.
Briefly, cells were treated as specified in each experiment and resuspended in PBS with 3% FCS and 10 μgs/ml of PI. In experiments where toxicity was evaluated in Ca-free medium, cells were resuspended in appropriate media with or without calcium to which 10 μgs/ml PI was added. Since previous studies have shown that mAb 216-mediated toxicity is remarkably […] at lower temperatures (Bhat, N. M., et al. (1996) Clin. Exp. Immunol 105, 183), precautions were taken to keep all media and cells at 37° C. and the centrifuge at room temperature.
Cytochalasin was obtained from Sigma and jasplakinolide was obtained from Molecular Probes (Eugene, Oreg.). Caspase inhibitors, Ac-IETD-CHO and Ac-DEVD-CHO were obtained from PharMingen (San Diego, Calif.). Nalm-6 cells (1×10^6 cells/ml) were treated with jasplakinolide (3 μgs/ml), cytochalasin (5 μgs/ml), or caspase inhibitors (10 μM) for 2 hr at 37° C. before treatment with mAb 216. Control samples with equivalent amounts of DMSO were set in parallel. Cells were then exposed to 25 μg of mAb 216 or control Ab and analyzed by flow cytometry.
Since exocytosis of lysosomes is known to be a calcium dependent phenomenon (Miyake, K., and P. L. McNeil (1995) J. Cell Biol. 131, 1737; Bi, G. Q., et al. (1995) J. Cell Biol. 131, 1747), membrane wounding by mAb 216 and repair of the wound was tested in calcium free and normal calcium conditions. The cell viability of Nalm-6 cells when treated with two VH4-34 encoded mAbs, mAb 216 at 50, 25 and 12.5 ng/ml concentrations, and Y2K at 50 ng/ml, was tested in the presence of media with and without calcium.
Brefeldin-A was obtained from Sigma. Nalm-6 cells (1×10^6 cells/ml) were treated with BFA (25 μg/ml) for 2 hr at 37° C. before treatment with mAb 216. Control samples with equivalent amounts of DMSO were set in parallel. Cells were then exposed to 25 μg of mAb 216 or control Ab and analyzed by flow cytometry.
The in vitro cytotoxicity of mAb 216 to Nalm-6 cells was evaluated using PI staining and viability assessment (percent live cells) as a function of the amount of mAb 216 present. The amount of mAb 216 needed to achieve 50% and 80% viability in Nalm-6 cells with and without a crosslinking agent (a secondary mAb, e.g., anti-human lambda) is shown in Table 1, expressed in nanograms antibody required to achieve the indicated level of cytotoxicity, as determined by PI entry into cells.

SUP B15 = assay: In vitro cytotoxicity of mAb216 in combination with chemotherapeutic agents, SUP B15; settings: SUP B15, 48 h
Procedure: (§1) Three cell lines which have been derived from ALL blasts of different genotype and phenotype, Nalm 6, REH, and SUPB15, were incubated with mAb 216 alone or in combination with vincristine (VCR), for 48 hours at 37° C.
(§2) In vitro cytotoxicity of mAb216 in combination with single chemotherapeutic agents was tested. Three cell lines which have been derived from ALL blasts of different genotype and phenotype, Nalm 6, REH, and SUPB15, were incubated with mAb 216 alone or in combination with vincristine (VCR), daunorubicin (DNR), or L-asparaginase (ASPR).

Nalm 6 = assay: In vitro cytotoxicity of mAb216 in combination with chemotherapeutic agents, Nalm 6; settings: for Live cells: Nalm 6, 48 h
Procedure: as §1, §2

REH = assay: In vitro cytotoxicity of mAb216 in combination with chemotherapeutic agents, REH; settings: 48 h
Procedure: as §1, §2

C[C@H]1CCC/C=C/[C@@H]2C[C@H](O)C[C@H]2[C@H](O)/C=C/C(=O)O1 [BFA, Brefeldin A]
viability of cells (Nalm-6 cells; BFA 25 μg/ml 2 hr at 37° C, then control antibodies): no effect on the viability

COc1cccc2c1C(=O)c1c(O)c3c(c(O)c1C2=O)C[C@@](O)(C(C)=O)C[C@@H]3O[C@H]1C[C@H](N)[C@H](O)[C@H](C)O1 [DNR, Daunorubicin]
Live cells × 10^5 (SUP B15; DNR 4 ng/ml): 0.44 × 10^5
Live cells (Nalm 6; DNR 5 ng/ml): 4.3 × 10^5

CC[C@]1(O)C[C@H]2CN(CCc3c([nH]c4ccccc34)[C@@](C(=O)OC)(c3cc4c(cc3OC)N(C=O)[C@H]3[C@@](O)(C(=O)OC)[C@H](OC(C)=O)[C@]5(CC)C=CCN6CC[C@]43[C@@H]65)C2)C1 [VCR, Vincristine]
live cell count (REH; VCR 2 ng/ml): 4.2 × 10^5 and 7.7 × 10^5
Live cells × 10^5 (SUP B15; VCR 2 ng/ml): 2.8 × 10^5
Live cells (Nalm 6; VCR 0.2 ng/ml): 13 × 10^5
Live cells (Nalm 6; VCR 2 ng/ml): 5 × 10^5
cell death due to treatment with vincristine alone (Nalm 6; vincristine 0.2 ng/ml, 48 hours at 37° C): no cell death occurred

C/C1=C\[C@H](C)C[C@H](C)OC(=O)C[C@H](c2ccc(O)cc2)NC(=O)[C@@H](Cc2c(Br)[nH]c3ccccc23)N(C)C(=O)[C@H](C)NC(=O)[C@@H](C)C1 [jasplakinolide]
viability (percent viable cells) (Nalm-6 cells; then control antibodies): did not show a decrease in viability

Ac-DEVD-CHO
cell viability (Nalm-6 cells): did not alter cell viability

Ac-IETD-aldehyde
cell viability (Nalm-6 cells): did not alter cell viability

cytochalasin
viability (percent viable cells) (Nalm-6 cells; then control antibodies): did not show a decrease in viability

B1: Asparaginase (protein, UniProt P00805 23-348, looked up)
L-asparaginase 2: LPNITILATGGTIAGGGDSATKSNYTVGKVGVENLVNAVPQLKDIANVKGEQVVNIGSQDMNDNVWLTLAKKINTDCDKTDGFVITHGTDTMEETAYFLDLTVKCDKPVVMVGAMRPSTSMSADGPFNLYNAVVTAADKASANRGVLVVMNDTVLDGRDVTKTNTTDVATFKSVNYGPLGYIHNGKIDYQRTPARKHTSDTPFDVSKLNELPKVGIVYNYANASDLPAKALVDAGYDGIVSAGVGNGNLYKSVFDTLATAAKTGTAVVRSSRVPTGATTQDAEVDDAKYGFVASGTLNPQKARVLLQLALTQTKDPQQIQQIFNQY
notes: L-asparaginase, chemotherapeutic enzyme
live cell count (REH; ASPR 0.8 U/ml): 6.2 × 10^5
Live cells × 10^5 (SUP B15; ASPR 0.8 U/ml): 3 × 10^5
Live cells (Nalm 6; ASPR 0.8 U/ml): 9.2 × 10^5
